In patent publication US5610025A, “Inhibition of interfering endogenous enzyme activity in assays of biological fluids” (Actimed Laboratories, Inc., priority 1993, dated 1997):
Values joined by “and” are separate entries in the source; they are usually repeats but may differ in a detail not shown here. Equal entries are not always repeated. Structures can show the parent of a compound that is named as a salt. Values belong to the compound of their own block, whether it stands above or below them.

What was measured:
Type in all cases: biochemical
[1] = target: T1, catalase (Homo sapiens, UniProt P04040); assay: Catalase inhibitor screening, aqueous hydrogen peroxide samples with added catalase, dye indicator/peroxidase system, absorbance at 514 nm
T1 sequence (P04040 2-527 limits assumed): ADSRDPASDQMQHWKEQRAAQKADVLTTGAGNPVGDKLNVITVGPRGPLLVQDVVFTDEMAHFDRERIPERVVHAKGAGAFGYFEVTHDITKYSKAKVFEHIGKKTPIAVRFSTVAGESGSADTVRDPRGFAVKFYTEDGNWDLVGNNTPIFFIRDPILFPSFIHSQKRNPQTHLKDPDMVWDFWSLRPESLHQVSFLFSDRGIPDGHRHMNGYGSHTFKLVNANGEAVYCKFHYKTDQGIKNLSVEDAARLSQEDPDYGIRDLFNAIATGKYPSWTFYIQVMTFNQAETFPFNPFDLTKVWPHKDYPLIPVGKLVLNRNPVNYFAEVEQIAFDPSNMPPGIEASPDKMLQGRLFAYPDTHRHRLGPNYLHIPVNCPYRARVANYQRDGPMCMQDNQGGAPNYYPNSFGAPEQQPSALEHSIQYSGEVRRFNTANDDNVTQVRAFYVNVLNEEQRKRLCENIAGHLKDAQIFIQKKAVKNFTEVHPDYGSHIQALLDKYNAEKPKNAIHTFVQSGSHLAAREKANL

[2] = target: T1, catalase; assay: Catalase inhibitor screening, aqueous cholesterol sample 50 mg/dL with catalase, reporter system Primaquine/MBTH; conditions: aqueous cholesterol 50 mg/dL with catalase, inhibitor 0.5 mM
Experimental: (§1) The inhibitors were added along with the extra catalase, and spectrophotometric measurements at 514 nm were obtained.
(§2) The percent recovery of absorbance is defined as follows: [formula]
(§3) In the following tables, the concentrations of inhibitor substances are expressed as the final concentration in the reaction system after accounting for dilution factors.

[3] = target: T1, catalase; assay: Catalase inhibitor screening, plasma cholesterol sample with catalase, reporter system Primaquine/MBTH; conditions: inhibitor 0.5 mM
Experimental: as §1, §2, §3

Structure (SMILES): CO [Methanol]
- % Recovery (of absorbance) [1]: 7%

- % Recovery (of absorbance) ([1]; peroxide with catalase, inhibitor concentration 0.5 mM): 50%
- % Recovery (of absorbance) ([1]; peroxide with catalase, inhibitor concentration 5 mM): 57%
- % Recovery (of absorbance) ([1]; peroxide with catalase, inhibitor concentration 40 mM): 79%
Structure (SMILES): Oc1cccc(O)c1 [Resorcinol]

Structure (SMILES): CCO [Ethanol]
- % Recovery (of absorbance) [1]: 6%

Structure (SMILES): [F-].[Na+] [Sodium fluoride]
- % Recovery (of absorbance) [1]: 7%

Structure (SMILES): [N-]=[N+]=[N-] [Sodium azide]
- effectiveness as inhibitor of catalase activity (in words) [1]: most effective inhibitors of catalase activity

Structure (SMILES): NO.NO.O=S(=O)(O)O [Hydroxylamine sulfate]
- % Recovery (of absorbance) [1]: 99% and 95% and 90% and 97% and 91%
- % Recovery (of absorbance) [2]: 96%
- % Recovery (of absorbance) [3]: 99%

Structure (SMILES): O=[N+]([O-])[O-].O=[N+]([O-])[O-].[Cu+2] [Cupric nitrate]
- % Recovery (of absorbance) [1]: 85%

Structure (SMILES): Cl.NO [Hydroxylamine HCl]
- % Recovery (of absorbance) ([1]; HCl): 96% and 95% and 91% and 92%
- % Recovery (of absorbance) [2]: 98%
- % Recovery (of absorbance) [3]: 98%

Structure (SMILES): O=NO [Sodium nitrite]
- % Recovery (of absorbance) [1]: 30%

Structure (SMILES): O=CO [Sodium formate]
- % Recovery (of absorbance) [1]: 8%

Structure (SMILES): [Cl][Ni][Cl] [Nickel (II) chloride]
- % Recovery (of absorbance) [1]: 60%
